The numbers were not newly measured in patent publication US9198859B2, “Concentrated mast cell stabilizing pharmaceutical formulations” (PARI Pharma GMBH, priority 2009, dated 2015), which cites them from elsewhere.

The subject of data set [1] is influenza virus. Particulars: mice.
The test system of data set [2] is respiratory syncytial virus. Particulars: mice.
The conditions of data set [3]: 6 months; nebulized 3 times daily IsoCrom (20 mg/2 ml) via eFlow; children.

SMILES strings stand for the structures.

In the case of `O=C(O)c1cc(=O)c2c(OCC(O)COc3cccc4oc(C(=O)O)cc(=O)c34)cccc2o1` [DSCG, disodium cromoglycate], the “protection from death induced by influenza virus infection” value in data set [1] is given as “protected mice from death”. In data set [2], the “protection against RSV induced illness” value is on record as “protected against respiratory syncytial virus induced illness”. Moreover, the “therapeutic efficacy versus inhaled steroids” value in data set [3] is reported as “as effective as inhaled steroids”.
